Measured values reported in patent publication US9005575B2, “Arg-Gly-Asp-conjugated alpha-melanocyte stimulating hormone hybrid peptide for use in diagnosing and treating melanoma, including metastatic melanoma and methods related to same” (STC.UNM, priority 2009, dated 2015).
Like-named read-outs stand apart in the source and are kept apart here. Positions of bridges follow the written chain, without caps; N, C: chain ends. Non-standard residues stand in square brackets, D forms with d. Residues, ends and D or L forms follow the SMILES beside them.

Assay: Biodistribution in B16/F1 melanoma-bearing C57 mice
Type: in vivo
Conditions: female, C57, mouse, iv, total radioactivity
Procedure: All the animal studies were conducted in compliance with Institutional Animal Care and Use Committee approval. The pharmacokinetics of ^99mTc-RGD-Lys-(Arg^11)CCMSH was determined in B16/F1 melanoma-bearing C57 female mice (Harlan, Indianapolis, Ind.). C57 mice were subcutaneously inoculated on the right flank with 1×10^6 B16/F1 cells. The weight of tumors reached approximately 0.2 g 10 days post cell inoculation. Each melanoma-bearing mouse was injected with 0.037 MBq of ^99mTc-RGD-Lys-(Arg^11)CCMSH via the tail vein. Groups of 5 mice were sacrificed at 0.5, 2, 4 and 24 h post-injection, and tumors and organs of interest were harvested, weighed and counted. Blood values were taken as 6.5% of the whole-body weight. The MC1 receptor specificity of the tumor uptake was determined at 2 h post-injection by co-injecting ^99mTc-RGD-Lys-(Arg^11)CCMSH with 10 μg (6.1 nmol) of unlabeled NDP-MSH, a linear α-MSH peptide analogue with picomolar affinity for the MC1 receptors present on murine melanoma cells. The co-injection of 3.5 μg (6.1 nmol) of RGD peptide was performed to determine the αvβ3 integrin specificity of the tumor uptake 2 h post-injection. Statistical analysis was performed using the Student's t-test for unpaired data.
All the animal studies were conducted in compliance with Institutional Animal Care and Use Committee approval. The pharmacokinetics of ^99mTc-RGD-Arg-(Arg^11)CCMSH was determined in B16/F1 melanoma-bearing C57 female mice (Harlan, Indianapolis, Ind.). C57 mice were subcutaneously inoculated on the right flank with 1×10^6 B16/F1 cells. The weight of tumors reached approximately 0.2 g 10 days post cell inoculation. Each melanoma-bearing mouse was injected with 0.037 MBq of ^99mTc-RGD-Arg-(Arg^11)CCMSH via the tail vein. Groups of 5 mice were sacrificed at 0.5, 2, 4 and 24 h post-injection, and tumors and organs of interest were harvested, weighed and counted. Blood values were taken as 6.5% of the whole-body weight. The MC1 receptor specificity of the tumor uptake was determined at 2 h post-injection by co-injecting ^99mTc-RGD-Arg-(Arg^11)CCMSH with 10 μg (6.1 nmol) of unlabeled NDP-MSH. The co-injection of 3.5 μg (6.1 nmol) of RGD peptide was performed to determine the αvβ3 integrin specificity of the tumor uptake at 2 h post-injection.

CC(C)[C@H](NC(=O)[C@@H]1CCCN1C(=O)[C@H](CCCNC(=N)N)NC(=O)[C@H](CS)NC(=O)[C@H](Cc1c[nH]c2ccccc12)NC(=O)[C@H](CCCNC(=N)N)NC(=O)[C@@H](Cc1ccccc1)NC(=O)[C@H](Cc1c[nH]cn1)NC(=O)[C@H](CCC(=O)O)NC(=O)[C@H](CS)NC(=O)[C@H](CS)NC(=O)[C@H](CCCNC(=N)N)NC(=O)[C@@H]1CC(=O)N[C@@H](CCCNC(=N)N)C(=O)NCC(=O)N[C@@H](CC(=O)O)C(=O)N[C@H](Cc2ccc(O)cc2)C(=O)N1)C(N)=O [^99mTc-RGD-Arg-(Arg^11)CCMSH, metal not drawn] (RGD[dY]DRCCEH[dF]RWCRPV-NH2; lactam N-5)
tissue uptake at 2 h (skin, 0.037 MBq, 2 h post-injection, read-out: Skin, Percentage Injected Dose/gram): 1.29 ± 0.32 %ID/g | tissue uptake at 4 h (skin, 0.037 MBq, 4 h post-injection, read-out: Skin, Percentage Injected Dose/gram): 0.82 ± 0.22 %ID/g | tissue uptake at 24 h (skin, 0.037 MBq, 24 h post-injection, read-out: Skin, Percentage Injected Dose/gram): 0.75 ± 0.13 %ID/g | tissue uptake at 2 h (skin, 2 h post-injection, NDP blockade (10 μg NDP-MSH co-injected), read-out: Skin, Percentage Injected Dose/gram): 1.26 ± 0.14 %ID/g | tissue uptake at 2 h (skin, 2 h post-injection, RGD blockade (3.5 μg RGD co-injected), read-out: Skin, Percentage Injected Dose/gram): 0.95 ± 0.38 %ID/g | tissue uptake at 0.5 h (spleen, 0.037 MBq, 0.5 h post-injection, read-out: Spleen, Percentage Injected Dose/gram): 2.73 ± 0.8 %ID/g | tissue uptake at 2 h (spleen, 0.037 MBq, 2 h post-injection, read-out: Spleen, Percentage Injected Dose/gram): 1.17 ± 0.57 %ID/g | tissue uptake at 4 h (spleen, 0.037 MBq, 4 h post-injection, read-out: Spleen, Percentage Injected Dose/gram): 1.75 ± 0.55 %ID/g | tissue uptake at 24 h (spleen, 0.037 MBq, 24 h post-injection, read-out: Spleen, Percentage Injected Dose/gram): 1.45 ± 0.37 %ID/g | tissue uptake at 2 h (spleen, 2 h post-injection, NDP blockade (10 μg NDP-MSH co-injected), read-out: Spleen, Percentage Injected Dose/gram): 1.53 ± 0.12 %ID/g | tissue uptake at 2 h (spleen, 2 h post-injection, RGD blockade (3.5 μg RGD co-injected), read-out: Spleen, Percentage Injected Dose/gram): 0.67 ± 0.38 %ID/g | tissue uptake at 0.5 h (stomach, 0.037 MBq, 0.5 h post-injection, read-out: Stomach, Percentage Injected Dose/gram): 4.3 ± 1.78 %ID/g | tissue uptake at 2 h (stomach, 0.037 MBq, 2 h post-injection, read-out: Stomach, Percentage Injected Dose/gram): 2.75 ± 1.71 %ID/g | tissue uptake at 4 h (stomach, 0.037 MBq, 4 h post-injection, read-out: Stomach, Percentage Injected Dose/gram): 3.44 ± 0.83 %ID/g | tissue uptake at 24 h (stomach, 0.037 MBq, 24 h post-injection, read-out: Stomach, Percentage Injected Dose/gram): 0.47 ± 0.17 %ID/g | tissue uptake at 2 h (stomach, 2 h post-injection, NDP blockade (10 μg NDP-MSH co-injected), read-out: Stomach, Percentage Injected Dose/gram): 2.4 ± 0.49 %ID/g | tissue uptake at 2 h (stomach, 2 h post-injection, RGD blockade (3.5 μg RGD co-injected), read-out: Stomach, Percentage Injected Dose/gram): 2.03 ± 1.39 %ID/g | Fold change in tumor/kidney uptake ratio versus ^99mTc-RGD-Lys-(Arg^11)CCMSH at 0.5 h (tumor and kidneys, 0.037 MBq, 0.5 h post-injection, read-out: Tumor/kidney uptake ratio, times that of ^99mTc-RGD-Lys-(Arg^11)CCMSH): 2.38 | Fold change in tumor/kidney uptake ratio versus ^99mTc-RGD-Lys-(Arg^11)CCMSH at 2 h (tumor and kidneys, 0.037 MBq, 2 h post-injection, read-out: Tumor/kidney uptake ratio, times that of ^99mTc-RGD-Lys-(Arg^11)CCMSH): 2.27 | Fold change in tumor/kidney uptake ratio versus ^99mTc-RGD-Lys-(Arg^11)CCMSH at 4 h (tumor and kidneys, 0.037 MBq, 4 h post-injection, read-out: Tumor/kidney uptake ratio, times that of ^99mTc-RGD-Lys-(Arg^11)CCMSH): 2.44 | tissue uptake at 0.5 h (tumor, 0.037 MBq, 0.5 h post-injection, read-out: Tumor, Percentage Injected Dose/gram): 14.1 ± 2.42 %ID/g | tissue uptake at 2 h (tumor, 0.037 MBq, 2 h post-injection, read-out: Tumor, Percentage Injected Dose/gram): 21.4 ± 3.74 %ID/g | tissue uptake at 4 h (tumor, 0.037 MBq, 4 h post-injection, read-out: Tumor, Percentage Injected Dose/gram): 16.1 ± 2 %ID/g | tissue uptake at 24 h (tumor, 0.037 MBq, 24 h post-injection, read-out: Tumor, Percentage Injected Dose/gram): 6.81 ± 3.71 %ID/g | tissue uptake at 2 h (tumor, 2 h post-injection, NDP blockade (10 μg NDP-MSH co-injected), read-out: Tumor, Percentage Injected Dose/gram): 1.96 ± 0.71 %ID/g | tissue uptake at 2 h (tumor, 2 h post-injection, RGD blockade (3.5 μg RGD co-injected), read-out: Tumor, Percentage Injected Dose/gram): 16.9 ± 2.69 %ID/g | tissue to tissue ratio at 0.5 h (tumor/blood, 0.037 MBq, 0.5 h post-injection, read-out: Uptake Ratio Tumor/Blood): 3.87 | tissue to tissue ratio at 2 h (tumor/blood, 0.037 MBq, 2 h post-injection, read-out: Uptake Ratio Tumor/Blood): 38.9 | tissue to tissue ratio at 4 h (tumor/blood, 0.037 MBq, 4 h post-injection, read-out: Uptake Ratio Tumor/Blood): 22.6 | tissue to tissue ratio at 24 h (tumor/blood, 0.037 MBq, 24 h post-injection, read-out: Uptake Ratio Tumor/Blood): 28.4 | tissue to tissue ratio at 2 h (tumor/blood, 2 h post-injection, NDP blockade (10 μg NDP-MSH co-injected), read-out: Uptake Ratio Tumor/Blood): 4.17 | tissue to tissue ratio at 2 h (tumor/blood, 2 h post-injection, RGD blockade (3.5 μg RGD co-injected), read-out: Uptake Ratio Tumor/Blood): 422 | tissue to tissue ratio at 0.5 h (tumor/kidneys, 0.037 MBq, 0.5 h post-injection, read-out: Uptake Ratio Tumor/Kidneys): 0.38 | tissue to tissue ratio at 2 h (tumor/kidneys, 0.037 MBq, 2 h post-injection, read-out: Uptake Ratio Tumor/Kidneys): 0.5 | tissue to tissue ratio at 4 h (tumor/kidneys, 0.037 MBq, 4 h post-injection, read-out: Uptake Ratio Tumor/Kidneys): 0.44 | tissue to tissue ratio at 24 h (tumor/kidneys, 0.037 MBq, 24 h post-injection, read-out: Uptake Ratio Tumor/Kidneys): 0.42 | tissue to tissue ratio at 2 h (tumor/kidneys, 2 h post-injection, NDP blockade (10 μg NDP-MSH co-injected), read-out: Uptake Ratio Tumor/Kidneys): 0.06 | tissue to tissue ratio at 2 h (tumor/kidneys, 2 h post-injection, RGD blockade (3.5 μg RGD co-injected), read-out: Uptake Ratio Tumor/Kidneys): 0.44 | tissue to tissue ratio at 0.5 h (tumor/liver, 0.037 MBq, 0.5 h post-injection, read-out: Uptake Ratio Tumor/Liver): 3.35 | tissue to tissue ratio at 2 h (tumor/liver, 0.037 MBq, 2 h post-injection, read-out: Uptake Ratio Tumor/Liver): 5.98 | tissue to tissue ratio at 4 h (tumor/liver, 0.037 MBq, 4 h post-injection, read-out: Uptake Ratio Tumor/Liver): 3.26 | tissue to tissue ratio at 24 h (tumor/liver, 0.037 MBq, 24 h post-injection, read-out: Uptake Ratio Tumor/Liver): 3.6 | tissue to tissue ratio at 2 h (tumor/liver, 2 h post-injection, NDP blockade (10 μg NDP-MSH co-injected), read-out: Uptake Ratio Tumor/Liver): 0.68 | tissue to tissue ratio at 2 h (tumor/liver, 2 h post-injection, RGD blockade (3.5 μg RGD co-injected), read-out: Uptake Ratio Tumor/Liver): 7.34 | tissue to tissue ratio at 0.5 h (tumor/lung, 0.037 MBq, 0.5 h post-injection, read-out: Uptake Ratio Tumor/Lung): 1.87 | tissue to tissue ratio at 2 h (tumor/lung, 0.037 MBq, 2 h post-injection, read-out: Uptake Ratio Tumor/Lung): 10.4 | tissue to tissue ratio at 4 h (tumor/lung, 0.037 MBq, 4 h post-injection, read-out: Uptake Ratio Tumor/Lung): 15.9 | tissue to tissue ratio at 24 h (tumor/lung, 0.037 MBq, 24 h post-injection, read-out: Uptake Ratio Tumor/Lung): 8.96 | tissue to tissue ratio at 2 h (tumor/lung, 2 h post-injection, NDP blockade (10 μg NDP-MSH co-injected), read-out: Uptake Ratio Tumor/Lung): 1.38 | tissue to tissue ratio at 2 h (tumor/lung, 2 h post-injection, RGD blockade (3.5 μg RGD co-injected), read-out: Uptake Ratio Tumor/Lung): 13.9 | tissue to tissue ratio at 0.5 h (tumor/muscle, 0.037 MBq, 0.5 h post-injection, read-out: Uptake Ratio Tumor/Muscle): 7.87 | tissue to tissue ratio at 2 h (tumor/muscle, 0.037 MBq, 2 h post-injection, read-out: Uptake Ratio Tumor/Muscle): 102 | tissue to tissue ratio at 4 h (tumor/muscle, 0.037 MBq, 4 h post-injection, read-out: Uptake Ratio Tumor/Muscle): 50.2 | tissue to tissue ratio at 24 h (tumor/muscle, 0.037 MBq, 24 h post-injection, read-out: Uptake Ratio Tumor/Muscle): 27.2 | tissue to tissue ratio at 2 h (tumor/muscle, 2 h post-injection, NDP blockade (10 μg NDP-MSH co-injected), read-out: Uptake Ratio Tumor/Muscle): 3.92 | tissue to tissue ratio at 2 h (tumor/muscle, 2 h post-injection, RGD blockade (3.5 μg RGD co-injected), read-out: Uptake Ratio Tumor/Muscle): 60.3 | dose excreted at 0.5 h (urine, 0.037 MBq, 0.5 h post-injection, read-out: Urine, Percent injected dose): 43.1 ± 5.62% | dose excreted at 2 h (urine, 0.037 MBq, 2 h post-injection, read-out: Urine, Percent injected dose (cleared through the urinary system)): 67.8 ± 6.28% | dose excreted at 4 h (urine, 0.037 MBq, 4 h post-injection, read-out: Urine, Percent injected dose): 75.1 ± 3.61% | dose excreted at 24 h (urine, 0.037 MBq, 24 h post-injection, read-out: Urine, Percent injected dose): 88.3 ± 1.64% | dose excreted at 2 h (urine, 2 h post-injection, NDP blockade (10 μg NDP-MSH co-injected), read-out: Urine, Percent injected dose): 76.8 ± 3.01% | dose excreted at 2 h (urine, 2 h post-injection, RGD blockade (3.5 μg RGD co-injected), read-out: Urine, Percent injected dose): 71.8 ± 5.07%
